Earlier results as cited in paper PMC6630532 (ACS Infectious Diseases, 2019).

System: bacteria
Conditions: read-out: IC50 (in vitro antimicrobial effect of killing 50% of the bacteria)

H-TGRAKRRMQYNRR-NH2 [UBI29–41]
IC50: 20 µM
